Test results reported in patent publication US12187624B2, “Method of acylating amino acids and uses of N-acyl amino acid products” (NewSouth Innovations Pty Limited, priority 2019, dated 2025).
“And” between values parts separate entries of the source, which are not always exact repeats. Identical values can stand only once. One block for each molecule: values may come before it.

Columns and labels:
[1] = Critical micelle concentration (CMC) from conductivity versus surfactant concentration; assay type: physicochemical
Experimental: The CMC of N-octanoyl-cys prepared by this method was determined to be 0.1M. The CMC was determined using a Bench-Top water quality meter, SPER SCIENTIFIC Instrument model 860033 to measure the conductivity and pH of the surfactant solution. The CMC value of the surfactant was measured by plotting conductivity values versus different surfactant concentrations at pH 9 by adding NaOH solution (0.1 mol L^−1) and 25.0° C. The CMC was obtained as the point of sharp transition in the slope of conductivity with increasing surfactant concentration (data not shown).
The CMC of the N-octanoyl-cys surfactant prepared by Exemplary method 1, in Na^+ form at pH 8, was determined (as reported above for Comparative method 1 above from measurements of the electrical conductivity with surfactant concentration) to be about 0.09 mol/L, see FIG. 3.
The same protocols as described above were used to determine the CMC and melting point of the twice-recrystallised N-octyl-cysteine surfactant. The values measured were 0.1M and 145° C., respectively. These values are consistent with literature values.

[2] = Ion flotation of calcium solution in air bubble column, ICP-MS analysis
Experimental: (§1) In a model experiment, 0.01M of the N-octanoyl-cys surfactant was dissolved (with heating around 65° C. while stirring) in a 5 mg L^−1 solution (i.e. 5 ppm) of Cd containing 0.1 M NaOH and finally made up to 100 ml using Milli-Q water, with the pH of around 8.
(§2) The solution was then poured into a column (with 30 cm height and 3 cm diameter) while a 2 L/min flow of air gas was passed through it with air pump (Hiblow HP40, Philippines). Two samples were taken after each of 30 and 60 minutes from around 2 cm top of the sinter, and the Cd concentrations of each sample was determined by ICP-MS analysis. The upper-outlet foam was also collected in a waste container using an outlet tube.
In the second series of ion flotation experiments, N-octanoyl-cys surfactant (obtained by Exemplary method 1) was used for removing calcium ions using air in the ion flotation process.

[3] = cited from earlier work
[4] = Ion flotation of Cd solution in air bubble column, ICP-MS analysis; conditions: Csurfactant = 0.01M
Experimental: as §1, §2
The same procedure was used with the N-octyl-cys surfactant in the flotation experiment, but where the pH of the solution was increased to 12, to enable this surfactant to successfully produce a foam (this difference is discussed later).

[5] = Foaming test of surfactant solutions at different pH; assay type: physicochemical; conditions: Csurfactant = 0.01M; solutions at pH 3, 6, 9, 12 (FIG. 6)
From the text: FIG. 6 is a pair of photos from the foaming test described in Example 2; the first photo (upper) is a photo of N-octanoyl cysteine solutions at: pH 3 (far left), pH 6 (middle left), pH 9 (middle right) and pH 12 (far right) and the second photo (lower) is a photo of N-octyl cysteine solutions at: pH 3 (far left), pH 6 (middle left), pH 9 (middle right) and pH 12 (far right). (Csurfactant=0.01M and the pH adjusted with […]).

[6] = pH 12, Ccalcium = 5 mg L^−1, Csurfactant = 0.01M, air bubbles

Molecule: CCCCCCCC(=O)N[C@@H](CS)C(=O)O [N-octanoyl-cys, N-octanoyl-cysteine]
CMC ([1]; N-octanoyl-cys prepared by Comparative method 1, pH 9 (NaOH), 25.0° C.): 0.1 M
CMC ([1]; prepared by Exemplary method 1, in Na+ form at pH 8): about 0.09 mol/L
Adsorption (%) After 60 min ([2]; pH 8, Ccalcium = 5 mg L^−1, Csurfactant = 0.01M): 97% and 97.3%
C(mg L^−1) (RSD %) After 30 min ([2]; pH 8, Ccalcium = 5 mg L^−1, Csurfactant = 0.01M, air bubbles): 0.72 (42.02) mg L^−1
pKa of the amide group (protonation) [3]: around −0.5
Adsorption (%) After 60 min ([4]; operating pH 8, 5 mg L^−1 Cd, listed as N-octanoyl-cys (Comparative method 1)): 99.2%
Adsorption (%) After 60 min ([4]; operating pH 8, 5 mg L^−1 Cd, listed as N-octanoyl-cys (Exemplary method 1)): 99.8%
Adsorption (%) After 60 min ([4]; operating pH 12, 5 mg L^−1 Cd): 12.3%
pH at which the surfactant starts foaming (foaming point) [5]: ~6

Molecule: CCCCCCCCN[C@@H](CS)C(=O)O [N-octyl-cys, N-octyl-cysteine]
Adsorption (%) After 60 min ([2]; pH 12, Ccalcium = 5 mg L^−1, Csurfactant = 0.01M): 14% and 14.6%
C(mg L^−1) (RSD %) After 30 min [2, 6]: 4.89 (0.87) mg L^−1
C(mg L^−1) (RSD %) After 60 min [2, 6]: 4.27 (3.31) mg L^−1
pKa of the amine group (protonation) [3]: about 10.7
Adsorption (%) After 60 min ([4]; operating pH 12, 5 mg L^−1 Cd): 14.2%
pH at which the surfactant starts foaming (foaming point) [5]: > 12

CMC ([1]; twice-recrystallised surfactant, same protocols as for N-octanoyl-cys): 0.1 M
Molecule: N-octyl-cysteine [reference compound]
